Results: patent publication US6953800B2, “Use of selective antagonists of the α1B-adrenergic receptor for improvement of sexual dysfunction” (Recordati S.A. Chemical, priority 1999, dated 2005)
Several values for one entry are separate records, joined by “and”; a condition that tells them apart may be missing. Equal entries are not always repeated.

Legend:
[1] = biological target: T1, rat α1d-adrenoceptor (Rattus norvegicus, UniProt P23944); assay: [3H]Prazosin binding, rat α1d-adrenoceptor in COS-7 cell membranes; conditions: COS-7 membranes, read-out: Affinity (Ki) α1d, animal cloned receptors
T1 construct: expressed in transfected cells; host or cells: COS-7 cells (transient), membranes
T1 sequence (P23944 1-561): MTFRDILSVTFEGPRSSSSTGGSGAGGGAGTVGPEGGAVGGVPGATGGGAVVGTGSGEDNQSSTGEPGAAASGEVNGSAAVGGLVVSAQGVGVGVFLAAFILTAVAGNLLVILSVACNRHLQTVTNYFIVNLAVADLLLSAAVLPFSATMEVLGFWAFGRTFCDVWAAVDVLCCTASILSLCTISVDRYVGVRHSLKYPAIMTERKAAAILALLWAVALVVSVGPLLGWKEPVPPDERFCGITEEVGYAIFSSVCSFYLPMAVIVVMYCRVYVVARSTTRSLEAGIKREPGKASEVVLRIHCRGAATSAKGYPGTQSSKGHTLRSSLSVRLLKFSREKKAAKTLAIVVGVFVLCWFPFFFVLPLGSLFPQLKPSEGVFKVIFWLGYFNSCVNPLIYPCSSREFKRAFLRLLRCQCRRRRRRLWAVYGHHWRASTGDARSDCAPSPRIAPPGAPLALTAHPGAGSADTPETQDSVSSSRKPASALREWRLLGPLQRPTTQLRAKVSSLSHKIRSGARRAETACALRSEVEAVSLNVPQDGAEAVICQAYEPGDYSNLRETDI
Protocol: (§1) The incubation was stopped by addition of ice-cold Tris buffer and rapid filtration through 0.2% polyethyleneimine pretreated Whatman GF/B or Schleicher & Schuell GF52 filters.
(§2) Data are expressed as mean Ki. All patents and other references cited herein are incorporated by reference in their entirety.

[2] = biological target: T2, bovine α1a-adrenoceptor (Bos taurus, UniProt P18130); assay: [3H]Prazosin binding, bovine α1a-adrenoceptor in COS-7 cell membranes; conditions: bovine α1a, COS-7 membranes; read-out: Affinity (Ki) α1a, animal cloned receptors
T2 construct: expressed in transfected cells; host or cells: COS-7 cells (transient), membranes
T2 sequence (P18130 1-466): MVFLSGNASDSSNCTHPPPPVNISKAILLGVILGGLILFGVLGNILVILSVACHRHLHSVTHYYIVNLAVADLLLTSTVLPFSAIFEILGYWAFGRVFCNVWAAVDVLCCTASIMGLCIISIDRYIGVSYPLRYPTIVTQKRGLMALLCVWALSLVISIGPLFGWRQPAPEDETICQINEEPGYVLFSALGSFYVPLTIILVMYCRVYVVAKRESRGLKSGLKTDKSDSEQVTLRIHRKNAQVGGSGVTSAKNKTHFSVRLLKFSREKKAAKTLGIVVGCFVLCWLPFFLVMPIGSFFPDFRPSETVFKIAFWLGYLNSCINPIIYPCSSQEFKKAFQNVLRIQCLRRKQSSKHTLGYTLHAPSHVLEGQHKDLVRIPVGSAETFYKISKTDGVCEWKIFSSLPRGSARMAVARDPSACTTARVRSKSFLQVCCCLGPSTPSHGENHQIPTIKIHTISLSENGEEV
Protocol: as §1, §2

[3] = test system: anaesthetised rats; assay: Intracavernous and blood pressure recording in rats; assay type: in vivo, rat
Protocol: Rats were anaesthetised by an intraperitoneal injection of urethane (1.5 g/kg in sterile saline) and placed on an homeothermic blanket. Their temperature was maintained at 37° C. Rats were tracheotomized to facilitate spontaneous breathing and to prevent aspiration of saliva. A catheter filled with heparinized saline (25 IU/ml) was placed into the carotid to record mean blood pressure (BP, mmHg). The penis was desheathed and the corpora cavernosa were exposed. A 25-gauge stainless-steel needle was inserted into one corpus cavernosum to record intracavernous pressure (ICP in mmHg). […] Pressure catheters were connected to pressure transducers (Model 750, Elcomatic Ltd, Glasgow, UK).
Following a resting period of 10 minutes, the compound solvent was delivered intracavernously (50 μl/injection). Then, increasing doses of one compound were injected every ten minutes by the same route. Five injections (one solvent plus four cumulative doses) were performed in each rat, and five rats were used for the study of one compound. For each injection and for each compound, mean BP averaged over the ten minutes following the injection was measured. The maximal ICP value reached during the ten-minute period following an injection was also recorded. In these experiments, all the compounds tested were dissolved and diluted in propylene glycol-Sorensen solvent.

[4] = biological target: T3, hamster α1b-adrenoceptor (Mesocricetus auratus, UniProt P18841); assay: [3H]Prazosin binding, hamster α1b-adrenoceptor in COS-7 cell membranes; conditions: COS-7 membranes, read-out: Affinity (Ki) α1b, animal cloned receptors
T3 construct: expressed in transfected cells; host or cells: COS-7 cells (transient), membranes
T3 sequence (P18841 1-515): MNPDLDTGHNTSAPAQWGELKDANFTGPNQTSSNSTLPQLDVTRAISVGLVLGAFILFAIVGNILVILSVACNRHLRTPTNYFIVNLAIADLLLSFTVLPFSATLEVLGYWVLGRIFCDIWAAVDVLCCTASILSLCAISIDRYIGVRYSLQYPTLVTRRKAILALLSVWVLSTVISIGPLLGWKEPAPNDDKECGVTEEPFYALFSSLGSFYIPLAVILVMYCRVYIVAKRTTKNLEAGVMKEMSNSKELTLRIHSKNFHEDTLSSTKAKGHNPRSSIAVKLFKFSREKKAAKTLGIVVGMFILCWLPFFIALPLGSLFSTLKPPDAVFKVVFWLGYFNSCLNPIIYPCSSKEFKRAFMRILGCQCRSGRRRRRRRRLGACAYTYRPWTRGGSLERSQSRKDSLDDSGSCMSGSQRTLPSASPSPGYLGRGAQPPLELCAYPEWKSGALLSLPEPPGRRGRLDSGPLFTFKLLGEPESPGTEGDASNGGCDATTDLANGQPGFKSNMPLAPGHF
Protocol: as §1, §2

[5] = test system: anaesthetised dogs; assay: Intracavernous and blood pressure recording in dogs
Protocol: Male beagle dogs were anaesthetised with pentobarbital sodium (i.v. Nembutal, 35 mg/kg for induction and 4 mg/kg/h for maintenance) and intubated with an endotracheal cuffed tube to facilitate free ventilation. A collateral of the left femoral vein was cannulated with a PE catheter for infusion of the anaesthetic. Systemic BP was monitored via a Mikro-tip 6F (Millar Instruments) pressure transducer introduced into the aortic arch through the right common carotid artery. ICP was measured by means of a 20-gauge needle placed into the left or right corpus cavernosum and the same needle was used for intracavernous injection of the drugs. The needle was attached to a catheter filled with heparinized saline (25 IU/mL). […] The compounds to be tested were injected intracavernously in a volume of 0.5 ml and, after each injection, the needle was flushed with 0.5 ml of saline. The vehicles for compound dissolution were tested before the first dose of each drug. The compounds were administered in a cumulative way, with a 30-minute interval between doses. ICP (mmHg) was measured at the peak effect after the administration of the compounds. The duration of tumescence (DT, min) was measured from the beginning of the rise of ICP over its basal value up to the return to baseline. The systolic blood pressure and diastolic blood pressure (mmHg) were measured at the peak effect after the administration of compounds, in order to evaluate the effects of the compounds on BP independently from the effects on ICP. Moreover, the systolic blood pressure was measured at the time of maximal ICP value after intracavernous injection, to evaluate the ICP/BP ratios. […] The data were reported as mean ±s.e. of the mean, or percent variation (±s.e.) of the basal values.

## COc1cc2nc(N3CCN(C(=O)COc4c(OC)cccc4C(C)C)CC3)nc(N)c2cc1OC.Cl [Compound A, 4-Amino-6,7-dimethoxy-2-[4-[(2-isopropyl-6-methoxyphenoxy)acetyl]-1-piperazinyl]quinazoline hydrochloride]
[1]
  Ki: 10.3 nM
[2]
  Ki: 7.5 nM
[3]; 10 μg/kg intracavernous
  BP: 91.3 ± 9.4 mmHg
  ICP: 36.8 ± 8.7 mmHg
[3]; 30 μg/kg intracavernous
  BP: 82.7 ± 11.0 mmHg
  ICP: 37.6 ± 10.1 mmHg
[3]; 100 μg/kg intracavernous
  BP: 74.8 ± 9.3 mmHg
  ICP: 38.7 ± 12.3 mmHg
[3]; 300 μg/kg intracavernous
  BP: 72.5 ± 5.6 mmHg
[3]; 300 μg/kg intracavernous, hydrochloride
  ICP: 50.6 mmHg and 50.6 ± 13.7 mmHg
[3]; intracavernous injection
  effect on ICP (in words): dose-dependently increased ICP
[3]; intracavernous, 10-300 μg
  decrease of blood pressure accompanying the ICP/BP increase (FIG. 1): ≤ 20%
[3]; intracavernous, over the dose range up to 300 μg/kg
  decrease of BP: about 30%
[4]
  Ki: 0.45 nM
[5]; 3 μg/kg intracavernous
  DBP: 116.0 ± 5.9 mmHg
  DT (duration of tumescence): 1.2 ± 0.2 min
  ICP: 26.7 ± 8.7 mmHg
  SBP: 155.3 ± 5.5 mmHg
  SBPICP (SBP at the time of maximal ICP value): 156.7 ± 6.8 mmHg
  increase of ICP in comparison with basal ICP values: 12 mmHg
[5]; 10 μg/kg intracavernous
  DBP: 120.0 ± 5.9 mmHg
  DT (duration of tumescence): 15.0 ± 8.4 min
  ICP: 75.0 ± 32.4 mmHg
  SBP: 157.5 ± 6.6 mmHg
  SBPICP (SBP at the time of maximal ICP value): 158.5 ± 7.4 mmHg
[5]; 30 μg/kg intracavernous
  DBP: 117.5 ± 6.5 mmHg
  DT (duration of tumescence): 8.3 ± 3.2 min
  ICP: 91.5 ± 26.9 mmHg
  SBP: 154.0 ± 6.6 mmHg
  SBPICP (SBP at the time of maximal ICP value): 156.5 ± 5.9 mmHg
[5]; 100 μg/kg intracavernous
  DBP: 113.0 ± 7.3 mmHg
  DT (duration of tumescence): 13.7 ± 5.6 min
  ICP: 95.0 ± 23.3 mmHg
  SBP: 147.5 ± 7.6 mmHg
  SBPICP (SBP at the time of maximal ICP value): 148.5 ± 6.0 mmHg
[5]; 300 μg/kg intracavernous
  DBP: 107.5 ± 7.4 mmHg
  ICP: 111.0 ± 10.9 mmHg
  SBP: 140.0 ± 7.4 mmHg
  SBPICP (SBP at the time of maximal ICP value): 142.0 ± 6.5 mmHg
  increase of ICP in comparison with basal ICP values: 96.5 mmHg
[5]; Compound B at the highest dose tested
  duration of action compared with reference compounds: higher than that of the reference compounds tested
[5]; dose-dependent over 3-300 μg/kg
  hypotension computed on diastolic blood pressure (change): −10 to −19 mmHg
[5]; intracavernous
  decrease of blood pressure accompanying the ICP/BP increase (FIG. 2): ≤ 20%
[5]; intracavernous injection
  effect on ICP (in words): dose-dependently increased ICP
